Data on two molecules can be found in article PMC4128814, “A High Throughput Screen Identifies Potent and Selective Inhibitors to Human Epithelial 15-Lipoxygenase-2” (PLoS ONE, 2014).

pIC50: −log10 of the molar value. Some results are limits rather than exact numbers.

The target of one assay is T1, 15-LOX-1 (Homo sapiens, UniProt P16050).
T1 construct: His6 (N); made in house
T1 sequence (P16050 1-662): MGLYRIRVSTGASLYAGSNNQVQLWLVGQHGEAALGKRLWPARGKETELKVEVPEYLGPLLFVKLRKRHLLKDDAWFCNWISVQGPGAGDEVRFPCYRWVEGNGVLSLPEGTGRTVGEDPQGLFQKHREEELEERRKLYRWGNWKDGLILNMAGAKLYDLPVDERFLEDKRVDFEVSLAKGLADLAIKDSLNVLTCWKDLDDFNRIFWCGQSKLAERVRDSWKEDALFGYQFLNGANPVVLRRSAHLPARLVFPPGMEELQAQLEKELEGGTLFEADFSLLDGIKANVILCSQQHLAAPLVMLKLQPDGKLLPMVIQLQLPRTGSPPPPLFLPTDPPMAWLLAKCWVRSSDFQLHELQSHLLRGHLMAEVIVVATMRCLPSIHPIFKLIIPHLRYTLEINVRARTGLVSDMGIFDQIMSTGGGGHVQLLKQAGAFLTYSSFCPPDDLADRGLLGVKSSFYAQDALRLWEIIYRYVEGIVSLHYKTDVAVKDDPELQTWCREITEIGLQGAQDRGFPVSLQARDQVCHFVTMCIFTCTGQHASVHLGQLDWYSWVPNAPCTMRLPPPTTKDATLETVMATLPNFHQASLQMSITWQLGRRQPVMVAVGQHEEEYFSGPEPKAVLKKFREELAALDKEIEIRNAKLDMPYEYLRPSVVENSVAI
The experiment in a line: Lipoxygenase UV-Vis assay, 15-LOX-1. In kind it is biochemical. The note with it: estimated from one inhibitor point at 20 µM; 10 µM AA. The text has this:
Different lipoxygenases, such as 15-LOX-1, 15-LOX-2, and 12-LOX were expressed as N-terminal His6-tagged proteins and were purified via immobilized metal affinity chromatography (IMAC) using an Ni-NTA resin for 15-LOX-1 [12], and 15-LOX-2 [17], and a Ni-IDA resin for 12-LOX [18]. […] Human leukocyte 5-lipoxygenase (5-LOX) was expressed as a non-tagged protein and used as a crude ammonium sulfate protein fraction, as published previously, [20].
The inhibitor compounds were screened initially using one concentration point at 25 µM on a Perkin-Elmer Lambda 40 UV/Vis spectrophotometer. […] The reactions were initiated by adding 200 nM 15-LOX-2, 30 nM 12-LOX, 40 nM 15-LOX-1, or approximately 100–300 nM (5–10 µL) of 5-LOX crude extract to a cuvette with 2 mL reaction buffer, constantly stirred using a magnetic stir bar at room temperature (22°C). Reaction buffers used for various LOX isozymes were as follows: 25 mM HEPES (pH 7.3), 0.3 mM CaCl2, 0.1 mM EDTA, 0.2 mM ATP, 0.01% Triton X-100, 10 µM AA for the crude, ammonium sulfate precipitated 5-LOX; and 25 mM HEPES (pH 7.5), 0.01% Triton X-100, 10 µM AA for 15-LOX-2, 15-LOX-1, and 12-LOX. […] The data were then plotted against inhibitor concentration, followed by a hyperbolic saturation curve fit (assuming total enzyme concentration [E]≪IC50). […] All inhibitors were stored at −20°C in DMSO. […]

For a further assay, the target named is T2, human recombinant COX-2 (Homo sapiens, UniProt P35354).
T2 construct: purchased Cayman Chemical
T2 sequence (P35354 18-604): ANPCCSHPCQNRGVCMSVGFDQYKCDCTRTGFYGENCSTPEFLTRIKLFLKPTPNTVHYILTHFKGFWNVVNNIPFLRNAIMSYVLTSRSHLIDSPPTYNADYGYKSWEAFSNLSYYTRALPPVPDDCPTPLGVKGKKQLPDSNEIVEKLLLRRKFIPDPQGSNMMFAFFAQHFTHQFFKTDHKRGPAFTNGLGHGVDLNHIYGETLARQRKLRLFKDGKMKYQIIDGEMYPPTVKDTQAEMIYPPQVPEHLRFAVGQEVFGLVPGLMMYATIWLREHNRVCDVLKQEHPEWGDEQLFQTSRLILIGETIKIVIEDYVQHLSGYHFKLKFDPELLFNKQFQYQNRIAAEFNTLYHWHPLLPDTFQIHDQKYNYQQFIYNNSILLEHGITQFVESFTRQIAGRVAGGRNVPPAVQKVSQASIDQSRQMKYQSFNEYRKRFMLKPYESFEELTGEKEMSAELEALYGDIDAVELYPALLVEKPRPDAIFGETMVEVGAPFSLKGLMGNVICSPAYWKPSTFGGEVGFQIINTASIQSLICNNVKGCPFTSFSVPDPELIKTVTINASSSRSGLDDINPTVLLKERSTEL
The experiment in a line: Cyclooxygenase assay (oxygen electrode), COX-2. It is filed as biochemical. The note with it: estimated from one inhibitor point at 20 µM; 100 µM AA. The method, then:
Cyclooxygenase activity assay was performed as previously described. Approximately 3 µg of either ovine COX-1 (COX-1) or human recombinant COX-2 (COX-2) (Cayman Chemical) were added to buffer containing 0.1 M Tris-HCl buffer (pH 8.0), 5 mM EDTA, 2 mM phenol and 1 µM hematin at 37°C. The selected inhibitors were added to the reaction cell, followed by an incubation of 5 minutes with either of the COX enzymes. The reaction was then initiated by adding 100 µM AA in the reaction cell, as indicated in enzymatic protocol (Cayman Chemicals). Data were collected using a Hansatech DW1 oxygen electrode and the consumption of oxygen was recorded. Indomethacin and the solvent (DMSO), were used as positive and negative controls, respectively, and the percent inhibition of the enzyme was calculated by comparing the rates of the samples to the controls.

In the case of `Clc1ccc(-c2nnc(C3CCCCC3)o2)cc1` [MLS000545091], the pIC50 on 15-LOX-1 and at human recombinant COX-2 was under 4.00 each time.
With `Cc1ccc(CSc2ncn(-c3ccccc3)n2)cc1` [MLS000536924], the pIC50 on 15-LOX-1 was under 4.30; at human recombinant COX-2, under 4.00.
